The test concerns the target TRMT6/TRMT61A complex (Homo sapiens, UniProt Q96FX7+Q9UJA5). Kind of test: screen for block of TRMT6/TRMT61A interaction in vitro; m1A by LC-MS/MS in treated PLC/PRF/[…] cells. Type of test: cell-based. Conditions: blocks subunit interaction (method not described); m1A read in cells treated at the proliferation IC50.

Sequence of TRMT6/TRMT61A complex (Q96FX7 2-289): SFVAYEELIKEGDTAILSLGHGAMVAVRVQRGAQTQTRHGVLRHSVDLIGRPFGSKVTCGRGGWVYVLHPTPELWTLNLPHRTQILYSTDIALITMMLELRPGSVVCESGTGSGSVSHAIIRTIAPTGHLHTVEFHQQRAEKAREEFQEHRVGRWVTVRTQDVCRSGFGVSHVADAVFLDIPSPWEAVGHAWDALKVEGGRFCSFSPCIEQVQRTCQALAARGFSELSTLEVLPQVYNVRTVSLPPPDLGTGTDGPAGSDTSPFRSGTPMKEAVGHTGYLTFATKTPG
Sequence of TRMT6/TRMT61A complex (Q9UJA5 whole entry): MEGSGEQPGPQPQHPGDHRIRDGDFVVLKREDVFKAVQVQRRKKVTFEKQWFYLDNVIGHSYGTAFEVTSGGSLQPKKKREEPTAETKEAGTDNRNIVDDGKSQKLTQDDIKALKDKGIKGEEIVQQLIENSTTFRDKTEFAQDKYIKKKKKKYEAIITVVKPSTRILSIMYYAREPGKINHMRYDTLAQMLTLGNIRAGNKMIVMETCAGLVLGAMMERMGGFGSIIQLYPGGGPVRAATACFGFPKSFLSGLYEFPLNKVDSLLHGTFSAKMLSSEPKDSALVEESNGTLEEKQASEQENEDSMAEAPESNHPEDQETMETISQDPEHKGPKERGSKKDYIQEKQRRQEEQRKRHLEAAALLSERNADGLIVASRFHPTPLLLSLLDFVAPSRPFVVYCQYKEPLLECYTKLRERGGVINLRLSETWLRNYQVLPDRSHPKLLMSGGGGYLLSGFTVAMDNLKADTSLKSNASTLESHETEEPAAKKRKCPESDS

`CN(C)C(=S)SSC(=S)N(C)C` [thiram]: the “screen for block of TRMT6/TRMT61A interaction in vitro; m1A by LC-MS/MS in treat” value is “thiram acts as an efficient inhibitor against TRMT6/TRMT61A complex”.

Values taken from PMC8563902, “N^1-methyladenosine methylation in tRNA drives liver tumourigenesis by regulating cholesterol metabolism” (Nature Communications, 2021).
